The values that follow come from patent publication US20210228500A1, “CELLULAR RETINOID BINDING PROTEIN ANTAGONISTS AND USES THEREOF” (CASE WESTERN RESRVE UNIVERSITY, priority 2018, published 2021).

“Also recorded” adds a separate entry of the source.

Assay [1] has as its system visual cycle retinoids in mouse eye. The assay is described as follows: Photobleaching and visual chromophore regeneration, ocular retinoid analysis. The assay is classed as in vivo, Balb/cJ mice. As to conditions: 0.25 mg 1.5 h prior to flash of light bleaching 75% of rhodopsin. How it is done: Balb/cJ mice were dark adapted for at least 24 h before the experiment. […] After the light exposure, the mice were kept in dark and euthanized at time intervals between 1 min to 8 h. The eyes were removed, flash frozen in liquid nitrogen, and stored in −80° C. until retinoid analysis.
All procedures related to the retinoid analysis were done under dim red light. To extract retinoids, enucleated eyes were transferred to a glass/glass homogenizer and submerged in 1 mL of 40 mM hydroxylamine in a 1:1 solution of PBS/methanol (v/v). The eyes were thoroughly homogenized and incubated at RT for 20 min to allow derivatization of retinylaldehydes to retinaldehdye oximes. The retinoids were extracted with 4 mL of hexane. To facilitate the fraction separation, the samples were centrifuged at 5000 g for 10 min, after which the upper organic phase was collected in a glass test tube. The organic solvent was dried in a rotary SpeedVac, and the residual retinoids were redissolved in […] of hexanes, and subjected to HPLC analysis. Separation of retinoids was achieved on a normal phase column (Agilent Zorbax Sil 5 μm 4.6×250 mm) in a step gradient of ethyl acetate in hexane (1% for 10 min followed by 10% for 40 min at a constant flow rate of 1.5 mL min^−1). Elution of retinoids was monitored at 325 and 360 nm wavelengths. All-trans-retinyl esters, all-trans- and 11-cis-retinaldehdye oximes as well as atROL were identified based on their elution times and characteristic UV/vis spectra. Retinoids were quantified based on linear correlations between the amount of injected synthetic standards and the area under chromatographic peaks.
Next, we examined the impact of abn-CBD on vitamin A metabolism in vivo. For this purpose, we analyzed the flow of retinoids via the visual cycle during the regeneration of visual chromophore after exposure to bright light. […] The light intensity was set up to cause photoisomerization in 75% of rhodopsin as indicated by the decrease in the amount of 11-cis-retinal measured immediately after the light exposure (FIG. 7). […]

Assay [2] addresses T1, RDH5 (Bos taurus, UniProt Q27979).
T1 construct: from tissue; host or cells: bovine RPE microsomes
T1 sequence (Q27979 1-318): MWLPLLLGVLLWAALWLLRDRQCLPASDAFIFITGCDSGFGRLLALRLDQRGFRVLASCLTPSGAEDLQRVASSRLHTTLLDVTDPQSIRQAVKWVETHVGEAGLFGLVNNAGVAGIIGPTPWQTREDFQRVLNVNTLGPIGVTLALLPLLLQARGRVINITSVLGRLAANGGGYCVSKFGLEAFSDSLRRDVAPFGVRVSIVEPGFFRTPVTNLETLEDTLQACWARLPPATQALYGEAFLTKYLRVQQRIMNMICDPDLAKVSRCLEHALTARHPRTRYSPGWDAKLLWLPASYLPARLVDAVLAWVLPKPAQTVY
The assay is described as follows: 11-cis-retinol oxidation assay. The format is biochemical. Particulars: bovine RPE microsomes preincubated with 10-50 μM. How it is done:
Dehydrogenase activity was assayed by monitoring oxidation of 11-cis-retinol to a corresponding aldehyde in bovine RPE microsomes. The reaction mixture containing 20 mM Tris/HCl buffer, pH 8.0, 1% BSA (w/v), 20 μM NAD+, and RPE microsomes (˜100 μg of total protein) in the total volume of 0.1 mL. 11-cis-Retinol (10 μM) was incubated at 30° C. for 10 min. The reaction was stopped by 0.2 mL of methanol that contained 40 mM hydroxylamine. After subsequent 15 min of incubation at RT, the retinoids were extracted with 0.3 mL of hexane and analyzed by normal-phase HPLC as described for the retinol esterification assay.
Thus, to further probe the biological effect of this compound, we tested its effect on the key enzymes of the visual cycle. For this purpose, microsomes isolated from bovine RPE cells were preincubated with 10-50 μM of abn-CBD (1:1 to 1:5 molar excess of cannabinoid) prior to the initiation of the esterification, isomerization, or oxidation reactions by addition of an adequate retinoid substrate.

The target of assay [3] is T2, CRBP2 (Homo sapiens, UniProt P50120).
T2 construct: 6x histidine tag (C, cleaved yes); thrombin cut site (residual residues after digestion) (C); made in house; host or cells: E. coli BL21 (DE3)
T2 sequence (P50120 1-134): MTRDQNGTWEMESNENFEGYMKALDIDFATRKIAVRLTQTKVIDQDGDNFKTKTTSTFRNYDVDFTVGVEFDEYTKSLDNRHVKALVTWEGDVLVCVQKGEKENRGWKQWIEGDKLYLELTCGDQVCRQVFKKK
Nature of the assay: Fluorescence-binding assay with CRBP2.

Assay [4] has as its target cannabinoid receptor 2 (Homo sapiens, UniProt P34972). As to conditions: cited from earlier work.
Assay [5] addresses T3, LRAT (Bos taurus, UniProt Q9BGL2).
T3 construct: from tissue; host or cells: bovine RPE microsomes
T3 sequence (Q9BGL2 1-230): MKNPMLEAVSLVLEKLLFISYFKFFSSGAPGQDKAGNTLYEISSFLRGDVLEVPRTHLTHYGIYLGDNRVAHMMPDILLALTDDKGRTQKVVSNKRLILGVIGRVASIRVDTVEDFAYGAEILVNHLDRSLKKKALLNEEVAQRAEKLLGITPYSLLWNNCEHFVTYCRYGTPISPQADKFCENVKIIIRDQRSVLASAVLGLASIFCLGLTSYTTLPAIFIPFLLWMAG
The assay is described as follows: Retinol esterification assay. The format is biochemical. As to conditions: bovine RPE microsomes preincubated with 10-50 μM. How it is done:
The enzymatic activity of LRAT was assayed using isolated UV-treated bovine RPE microsomes as described previously. The reaction mixture included 20 mM Tris/HCl buffer, pH 7.4, 1 mM DTT, 1% bovine serum albumin (BSA; w/v), and RPE microsomes (˜100 μg of total protein) in the total volume of 0.1 mL. To test the influence of abn-CBD on the LRAT activity, 10, 20, or 50 μM of this compound was added prior to the addition of atROL (final concentration of 10 μM). To record the initial rate of the esterification, the mixture was incubated at RT for 5 min. The reaction was quenched with 0.2 mL of methanol, and the retinoids were extracted with 0.3 mL of hexane. The extracted retinoids were separated on a normal phase column (Agilent Zorbax Sil 5 μm 4.6×250 mm) in an isocratic flow of 10% ethyl acetate in hexane (flow rate of 1.5 mL min^−1). Elution of retinoids was monitored at 325 nm. All-trans-retinyl esters were quantified based on a correlation between the amount of injected synthetic standards and the area under chromatographic peaks.
Thus, to further probe the biological effect of this compound, we tested its effect on the key enzymes of the visual cycle. […]

Sequence of cannabinoid receptor 2 (P34972 whole entry): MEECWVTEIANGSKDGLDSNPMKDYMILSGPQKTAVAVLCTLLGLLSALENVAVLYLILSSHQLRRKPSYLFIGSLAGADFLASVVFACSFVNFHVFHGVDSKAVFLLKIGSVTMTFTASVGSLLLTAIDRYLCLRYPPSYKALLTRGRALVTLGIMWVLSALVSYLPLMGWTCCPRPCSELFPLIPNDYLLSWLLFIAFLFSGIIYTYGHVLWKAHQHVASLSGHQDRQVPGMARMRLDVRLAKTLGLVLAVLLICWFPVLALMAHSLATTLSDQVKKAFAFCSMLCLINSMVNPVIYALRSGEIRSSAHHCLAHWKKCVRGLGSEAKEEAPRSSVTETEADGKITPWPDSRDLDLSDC

For the compound `C=C(C)[C@@H]1CCC(C)=C[C@H]1c1c(O)cc(O)cc1CCCCC` [abn-CBD, 4-[(1R,6R)-3-Methyl-6-prop-1-en-2-ylcyclohex-2-en-1-yl]-5-pentylbenzene-1,3-diol], in assay [1], the “atROL level during chromophore regeneration” value was “transient accumulation of atROL”, the “rate of 11-cis-retinaldehyde regeneration” value is on record as “noticeably slower” and the “rate of all-trans-retinaldehyde clearance vs control” value is “no differences”. In assay [2], the “effect on enzymatic activity of RDH5” value is given as “did not cause a measurable decline”. The “interaction with CRBP2” value in assay [3] was “does not interact; also recorded: absence of interaction”. Moreover, the “interaction with cannabinoid receptor 2” value in assay [4] is reported as “does not interact”. The “effect on enzymatic activity of LRAT” value in assay [5] is given as “did not cause a measurable decline”.
